According to publication PMC9474773, “PARP targeted Auger emitter therapy with [^125I]PARPi-01 for triple-negative breast cancer” (EJNMMI Research, 2022):
“And” between values parts separate entries of the source, which are not always exact repeats. Equal values may be shown once.

How the values were obtained:
[1] = test system: subcutaneous MDA-MB-231 xenografts; test: Ex vivo biodistribution by gamma counter; assay type: in vivo, NOD/SCID mice
Method: Female NOD/SCID mice at 5–6 weeks of age (Janvier, France) was used for developing subcutaneous TNBC tumour. Animals were housed in 20–24 °C in a 12 h day light cycle. For each mouse, 3 × 10^6 MDA-MB-231 cells were suspended in a 1:1 (volume) mixture of Culture media: Matrigel® matrix (Corning®, Product No: 356237). Mice were inoculated with this cell suspension (max 200 µl) subcutaneously in the right flank. Tumour growth was monitored daily using calliper measurements. Tumour volume was calculated daily according to the formula Tumourvolume=TumourLength×Tumourbreadth^2×0.52
Upon reaching of a tumour volume of 500 mm^3, animals were proceeded for experiments. For biodistribution study animals were administered with [^123I]PARPi-01 (n = 3). For therapy studies animals were randomized for control (n = 10) or [^125I]PARPi-01 administration (n = 10). Randomisation was done based on equivalent distribution of tumour volumes. In addition to the daily calliper measurements image analysis of CT based tumour volumes was blinded to avoid bias. Animals were sacrificed upon completion of biodistribution study or upon reaching a humane end point for the therapy study. Humane end point is determined as reaching of either of the following conditions: 15 mm tumour diameter, 1500 mm^3 tumour volume, or development of ulcers/ascites.
For biodistribution, animals imaged at 4 h p.i. were killed 24 h p.i., while the ones scanned 24 h p.i. were killed 5 days p.i.. Subsequently, organs were excised, weighed, and assayed for radioactivity in a gamma counter. Mean tumour and organ uptake was determined from decay-corrected tissue radioactivity normalized to injected dose and tissue sample weight (%ID/g tissue wet weight).

[2] = test system: subcutaneous MDA-MB-231 tumours; test: Small animal SPECT/CT imaging; assay type: in vivo, NOD/SCID mice
Method: Imaging was performed with a small animal SPECT/CT system (X-Cube and γ-Cube, Molecubes, Gent, Belgium). Mice bearing subcutaneous MDA-MB-231 tumours upon reaching tumour volume of 500 mm^3 were intravenously administered with [^123I]PARPi-01 (9.3 ± 2.7 MBq) via lateral tail-vein using a catheter under 1.5 to 2.5% isoflurane anaesthesia in oxygen at 0.8 L/min. [^123I]PARPi-01 was prepared by diluting the tracer in 0.9% NaCl to a total volume of 100 μL. Administered dose was calculated by subtraction of decay-corrected syringe activity post-injection from pre-injection activity. The mice were scanned either at 4 h or at 24 h post injection (p.i.). The CT acquisition settings were as follows: default high resolution protocol, 440 uA, 50 kVp, 32 ms exposure time, and 1080° rotation in a spiral mode with 960 exposures/360°; the duration of each CT scan was 5 min. A SPECT scan was initiated at the end of each CT scan. The SPECT acquisition settings were as follows: 7-headed camera equipped with a general-purpose collimator with 28 pinholes (i.e., 0.75 mm apertures and a radius of rotation of 20 mm), helical scan with 82 bed positions; the total duration of each SPECT scan was 30 min. Both CT and SPECT axial fields of view were selected at 105 mm. During the scans, the isoflurane concentration was adapted to achieve a respiratory rate between 75 and 50 breaths per minute. […]

cytochrome P450 (CYP450) = test system: cytochrome P450 (CYP450); parameters: method as in PMID 28736501, PMID 29717476; conditions: cited from earlier work
[3] = parameters: method as in PMID 29630818; conditions: cited from earlier work
[4] = parameters: method as in PMID 27169564; conditions: cited from earlier work
[5] = parameters: method as in PMID 34318678; conditions: intracellular distribution not considered; cited from earlier work
[6] = 24 h p.i., i.v., decay-corrected, n = 3

For `O=C(c1ccc([123I])cc1)N1CCN(C(=O)c2cc(Cc3n[nH]c(=O)c4ccccc34)ccc2F)CC1` [[^123I]PARPi-01], the “Tumour: Blood Ratio” value ([1]; 24 h p.i.) was 1.3, the liver uptake [1, 6] was 2.5 %ID/g and 2.49 ± 0.6 %ID/g and the tumour uptake [1, 6] was 0.2 %ID/g. For the same compound, the “activity in organs of animals sacrificed at 5 d p.i.” value ([1]; 5 d p.i.) was “no quantifiable activity”, the clearance pathway ([2]; 4 h and 24 h p.i.) was “hepatobiliary clearance” and the “deiodination in vivo (thyroid uptake)” value ([2]; 24 h p.i.) was “strong deiodination”.
For `O=C(c1cc(Cc2n[nH]c(=O)c3ccccc23)ccc1F)N1CCN(C(=O)C2CC2)CC1` [Olaparib], the “fraction metabolised in liver by CYP450” value (cytochrome P450 (CYP450)) is listed as 84%, the “Log Poct” value [3] is listed as 1.95 and the dose limiting toxicities [4] is listed as “anaemia, thrombocytopenia, and neutropenia”.
In the case of `O=C(c1cccc([123I])c1)N1CCN(C(=O)c2cc(Cc3n[nH]c(=O)c4ccccc34)ccc2F)CC1` [[^123I]MAPi], the “estimated absorbed dose in liver” value [5] is given as 0.0044 Gy/MBq and the “estimated absorbed dose in thyroid” value [5] is given as 0.0041 Gy/MBq.
